The subject of test [1] is TNFα. Description: TNFα inhibition test (Moreira et al.). It is filed as cell-based. Conditions: for IC50: read-out: TNF IC50; for TNF Potency: relative potency, compound 1 = 100.00. An excerpt:
A series of hydroxamic acid derivatives described in EP 901465 were subjected to the histone deacetylase (HDAC) and TNFα inhibition tests in accordance with the methods described by Lechner et al., Biochim Biophys. Acta 1996, 1296, 181-188 and Moreira A. L. et al., J. Exp. Med. 1993, […] respectively.

The subject of test [2] is IL-1β. Description: LPS-stimulated PBMC cytokine production in vitro: IL-1β (ECL). It is filed as cell-based. As to conditions: Homo sapiens, LPS 10 ng/ml, 24 h. On the procedure:
(§1) Samples of peripheral blood or buffy coats from healthy volunteers were used. […] At the end of the treatment the pro-inflammatory cytokines TNFα, IL-1β were measured by means of an electrochemiluminescence assay (ECL) using specific commercial antibodies.

Test [3] concerns IFNγ. Description: IFNγ synthesis by PBMCs stimulated with IL-12 and IL-18 (ELISA). It is filed as cell-based. As to conditions: Homo sapiens; PBMC, IL-12 10 ng/ml + IL-18 20 ng/ml, 48 h; read-out: IFNγ (from IL-12 + IL-18) IC50. The procedure: Cytokine IFNγ is produced by the T lymphocytes following their stimulation by pro-inflammatory cytokines, especially IL-12 and IL-18 (Dinarello C. A. and Moldawer L. L. Proinflammatory and anti-inflammatory cytokines in rheumatoid arthritis. A primer for clinicians. 2nd Edition, Amgen Inc., 2000).
At the end, the cells were stimulated for 48 hours in the presence of the compound by simultaneous addition of recombinant IL-12 (10 ng/ml) and recombinant IL-18 (20 ng/ml). The quantity of IFNγ produced was determined with a commercial ELISA assay.
A general note: ELISA stands for enzyme-linked immunosorbent assay.

In test [4] the test system is inflammatory cytokines induced by LPS. Description: LPS-stimulated PBMC cytokine production, summary over all cytokines. Conditions: Homo sapiens, read-out: IC50, synthesis of all the inflammatory cytokines induced by LPS.
Protocol: (§2) Interferon γ (IFNγ) was measured with a commercially available ELISA assay.
The test system of test [5] is IFNγ. Briefly: LPS-stimulated PBMC cytokine production in vitro: IFNγ (ELISA). Conditions: Homo sapiens, 24 h, read-out: IFNγ IC50.
Protocol: as §2
Test [6] deals with TNFα. Briefly: LPS-stimulated PBMC cytokine production in vitro: TNFα (ECL). It is filed as cell-based. As to conditions: Homo sapiens, LPS 10 ng/ml, 24 h. The procedure: as §1

Regarding `CCN(CC)Cc1ccc2cc(CNC(=O)Nc3ccc(C(=O)NO)cc3)ccc2c1` [Compound 4], in test [1], the IC50 worked out at 11.2 nM and the “TNF Potency” value came out at 62.68.

As for `O=C(Nc1ccc(C(=O)NO)cc1)OCCCc1ccccn1` [Compound 12], in test [1], the IC50 was determined as 230 nM and the “TNF Potency” value stood at 3.04.

On to `O=C(Nc1ccc(C(=O)NO)cc1)OCCCc1ccccc1` [Compound 10], for which, in test [1], the IC50 was determined as 159 nM and the “TNF Potency” value is 4.40.

With `O=C(Nc1ccc(C(=O)NO)cc1)OCC1CCc2ccccc2C1` (centres unmarked) [Compound 7], in test [1], the IC50 was determined as 65.5 nM and the “TNF Potency” value was found to be 10.68.

Turning to `O=C(Nc1ccc(C(=O)NO)cc1)OCCC12CC3CC(CC(C3)C1)C2` [Compound 9], in test [1], the IC50 was 159 nM and the “TNF Potency” value was 4.40.

On to `O=C(CCCCc1ccccc1)Nc1ccc(C(=O)NO)cc1` [Compound 14], for which, in test [1], the IC50 came to 300 nM and the “TNF Potency” value came out at 2.33.

Turning to `CCN(CC)Cc1ccc2cc(CCC(=O)Nc3ccc(C(=O)NO)cc3)ccc2c1` [Compound 2], in test [1], the IC50 is 10.2 nM and the “TNF Potency” value was 68.75.

Turning to `O=C(Nc1ccc(C(=O)NO)cc1)OCc1ccc2ccccc2c1` [Compound 11], in test [1], the IC50 worked out at 159 nM and the “TNF Potency” value was 4.40.

With `CCN(CC)Cc1ccc(COC(=O)Nc2ccc(C(=O)NO)cc2)c2ccccc12` [Compound 3], in test [1], the IC50 stood at 10.3 nM and the “TNF Potency” value was 68.02.

Consider `CCCCN(CCCC)Cc1ccc2cc(COC(=O)Nc3ccc(C(=O)NO)cc3)ccc2c1` [Compound 8], for which, in test [1], the IC50 amounted to 67.6 nM and the “TNF Potency” value turned out to be 10.32.

In the case of `CCCN(CCC)Cc1ccc2cc(COC(=O)Nc3ccc(C(=O)NO)cc3)ccc2c1` [Compound 5], in test [1], the IC50 was determined as 12.7 nM and the “TNF Potency” value turned out to be 55.28.

`CC[N+]([O-])(CC)Cc1ccc2cc(COC(=O)Nc3ccc(C(=O)NO)cc3)ccc2c1` [Compound 15]: in test [1], the IC50 worked out at 1000 nM and the “TNF Potency” value is reported as 0.70.

For the compound `O=C(Nc1ccc(C(=O)NO)cc1)OCc1ccc2c(c1)OCO2` [Compound 6], in test [1], the IC50 turned out to be 50 nM and the “TNF Potency” value worked out at 14.00.

Turning to `CCN(CC)Cc1ccc2cc(COC(=O)Nc3ccc(C(=O)NO)cc3)ccc2c1` [Compound 1], in test [1], the IC50 is 7 nM and the “TNF Potency” value worked out at 100.00.

For `O=C(Nc1ccc(C(=O)NO)cc1)OCCCc1ccncc1` [Compound 13], in test [1], the IC50 worked out at 270 nM and the “TNF Potency” value is on record as 2.59.

With `CC(/C=C/C(=O)NO)=C\[C@@H](C)C(=O)c1ccc(N(C)C)cc1` [TSA, trichostatin], the IC50 is 100 nM in test [2]; 490 nM in test [3]; 50 to 200 nM in test [4]; 10 nM in test [5]; 50 nM in test [6].

The term IC50 denotes the concentration needed to halve the response being measured.

Source of the values: patent US20040157930A1, “Histone deacetylase enzyme-inhibiting derivatives of hydroxamic acid as new cytokine synthesis-inhibiting anti-inflammatory drugs” (priority 2001, published 2004).
